System: thawed bovine sperm
Protocol: Semen collected from a breeding bull kept at Livestock Improvement Association of Japan was diluted with primary and secondary diluents prepared in the same manner as in Example 1 except that 30 g of fructo-oligosaccharide or 30 g of isomalto-oligosaccharide was added. The semen was diluted so that the final concentration of glycerin was 7%, thereby obtaining diluted sperm solutions. As a control group with soybean lecithin and devoid of fructo-oligosaccharide and isomalto-oligosaccharide, semen was diluted with the diluent described in Example 1 of Patent Document 4, the diluent having a final glycerin concentration of 7%. As a control group with egg yolk and devoid of fructo-oligosaccharide and isomalto-oligosaccharide, semen was diluted with the diluent described in Patent Document 1, produced and sold by Livestock Improvement Association of Japan for preparation of frozen semen, the diluent having a final glycerin concentration of 6.5%. Semen was diluted with each of these diluents so that the diluted semen contained 80 million sperm per ml. The second diluent was added to the primarily diluted semen at a ratio of 1:1 so that the semen contained 40 million sperm per ml. Straws for artificial insemination were then prepared by conventional methods. Cryopreservation was performed using liquid nitrogen by conventional methods. […]

| Substance | adverse influence on the oocyte penetration ability of sperm and the development ability of fertilized embryo |
| --- | --- |
| fructo-oligosaccharide | substantially no adverse influence |
| isomalto-oligosaccharide | substantially no adverse influence |

From patent publication US11185068B2, “Diluent for sperm and method for preserving sperm using same” (Livestock Improvement Association of Japan, Inc., priority 2016, dated 2021)
